From patent publication US11540516B2, “M-diamide compound and preparation method therefor and use thereof” (priority 2018, dated 2023)
Where two headings read alike, the source gives them in different places.

What was measured:
[1] = system: Spodoptera exigua Hiibner; assay: Indoor bioactivity test against Spodoptera exigua Hiibner (leaf dip); assay type: in vivo; settings: foliar, 3rd day after treatment
Procedure: (§1) The leaf dip method was used to assay the insecticidal activity of compounds to strains of Spodoptera exigua Hiibner. Dip the leaf disc into the solution prepared with compound of this invention for 10 seconds, and dry them in a cool environment. Then place them in Petri dish with 4 discs per dish. Put the filter paper into the Petri dish to moisturize it. Put 10 of Spodoptera exigua Hiibners into each dish, which was repeated by 3 times. The dishes were placed in an illumination incubator and incubated at 25° C. with 14 hL: 10 hD illumination. The number of Spodoptera exigua Hiibner death was investigated on the 1st, 2nd and 3rd day after treatment, and the mortality was calculated.

[2] = system: Spodoptera litura; assay: Indoor bioactivity test against Spodoptera litura (leaf dip); assay type: in vivo; settings: foliar
Procedure: as §1, with “litura.” for “exigua Hiibner.”, “litura” for “exigua Hiibners”, “litura” for “exigua Hiibner”
According to the above method, compound 4, 23 and KC1 were selected and parallelly tested against Spodoptera litura to compare the insecticidal activity.

[3] = system: Mythimna separata; assay: Indoor bioactivity test against Mythimna separata (leaf dip); assay type: in vivo; settings: foliar, 3rd day after treatment
Source text: The leaf dip method was used to assay the insecticidal activity of compounds to strains of Mythimna sepatata. Cut above ground part of fresh maize seedlings, about 10 cm. Dip the maize seedlings into the solution prepared with compound of this invention for 10 seconds and dry them in a cool environment. Then cut the dry maize seedlings into 3˜5 cm leaf sections and put 3 leaf sections into each petri dish. Put ten of 4th-instar larvae of Mythimna separatas into each dish, which was repeated by 3 times. Then the dishes were placed in an illumination incubator and incubated at 25° C. in the dark. Symptoms were investigated on the 1st, 2nd and 3rd day after treatment, and the mortality was calculated.

[4] = system: Plutella xylostella; assay: Indoor bioactivity test against Plutella xylostella (leaf dip); assay type: in vivo; settings: foliar; for mortality at 1 ppm / mortality at 0.4 ppm: 3rd day after treatment
Procedure: as §1, with “Plutella xylostella.” for “Spodoptera exigua Hiibner.”, “Plutella xylostella” for “Spodoptera exigua Hiibners”, “Plutella xylostella” for “Spodoptera exigua Hiibner”
According to the above method, compound 4 and KC1 were selected and parallelly tested against Plutella xylostella to compare their insecticidal activity.

[5] = system: Chilo suppressalis; assay: Indoor bioactivity test against Chilo suppressalis (rice stem dip); assay type: in vivo
Procedure: The leaf dip method was used to assay the insecticidal activity of compounds to strains of Chilo suppressalis. The rice was cultivated in a plastic pot with a diameter of 9 cm and a height of 10 cm. When the rice grew about 25 cm, the aerial part of robust and consistent rice seedlings were selectively cut. Their leaves were removed and their stems of about 8 cm were kept for use. Pour the solution prepared with compound of this invention into the Petri dish (about 40 mL) and immerse the rice stems into the solution for 10 seconds. Take rice stems out and dry them in a cool environment. Put a wet cotton ball at the bottom of finger-like glass tube and 5 rice stems in each tube. Put 10 of 3rd-instar larvae of Chilo suppressa into each tube, which was repeated by 3 times. Seal the tubes with black cotton cloth and tighten them with rubber band. The tubes were placed in a illumination incubator at 28° C. and incubated in the dark. The number of alive Chilo suppressalis and the total number were investigated 3 days after treatment. The mortality was calculated.
According to the above method, Compound 23 and KC2 were selected and parallelly tested against Chilo suppressalis.

[6] = system: soybean thrips; assay: Biological activity on soybean thrips in greenhouse (foliar spray); assay type: in vivo; settings: for mortality at 10 ppm / mortality at 50 ppm: Thrips, foliar; for No. of thrips 1 d / No. of thrips 6 d: foliar spray, 5% SL
Procedure: Test system: naturally occurring thrips population on soybeans planted in greenhouse. The basic number of active thripses were more than 100 thripses per trifoliate leaf. Under the same conditions, the sensitivity of the thrips population to Spinetoram (dose: 50 mg/L) is 96.55% mortality on the 6th day after treatment.
The size of the plot: 10 m^2, no repetition.
Test formulation: each compound was made into 5% SL (compound 5%+emulsifier 5%+solvent to make up 100%).
(1) Spraying time: both adult and larva thripses were in the active period. The number of spray: 1 time.
(2) Standard for water usage: when dose was in mg/kg, the upper leaves were wet and water began to drop therefrom.
(3) Survey standard: count three single leaves as one leaf. Three leaves were randomly selected and investigated for the number of adult and larva thripses on them.
[…] 2 surveys were conducted.

[7] = 3rd day after treatment, read-out: mortality of Chilo suppressalis
[8] = 3rd day after treatment, read-out: mortality of Spodoptera litura
[9] = 24 h, 1 d, read-out: Mortality (%) 1 d
[10] = 48 h, 2 d, read-out: Mortality (%) 2 d
[11] = 72 h, 3 d, read-out: Mortality (%) 3 d
[12] = 24 h, read-out: Mortality % 1 d
[13] = 144 h, read-out: Mortality % 6 d

Compound: CC(N(C(=O)c1ccc(C#N)cc1)c1cccc(C(=O)Nc2c(Br)cc(C(F)(C(F)(F)F)C(F)(F)F)cc2C(F)(F)F)c1F)C1(Cl)CC1 (stereo not shown) [Compound 75, N-(2-bromo-4-(perfluoropropan-2-yl)-6-(trifluoromethyl)phenyl)-3-(N-(1-(1-chlorocyclopropyl)ethyl)-4-cyanobenzamido)-2-fluorobenzamide]
- mortality at 10 ppm ([1]; 10 ppm): ≥ 90%
- mortality at 10 ppm ([2]; 3rd day after treatment): ≥ 90%
- mortality at 1 ppm [3]: ≥ 90%
- mortality at 1 ppm [4]: ≥ 90%

Compound: O=C(Nc1c(Br)cc(C(F)(C(F)(F)F)C(F)(F)F)cc1C(F)(F)F)c1cccc(N(CC2CC2)C(=O)c2ccc(F)cc2)c1F [Compound 62, N-(2-bromo-4-(perfluoropropan-2-yl)-6-(trifluoromethyl)phenyl)-3-(N-(cyclopropylmethyl)-4-fluorobenzamido)-2-fluorobenzamide]
- mortality at 1 ppm [1]: 90%
- mortality at 5 ppm [5, 7]: ≥ 90%
- mortality at 0.4 ppm [2, 8]: ≥ 90%
- mortality at 1 ppm [3]: ≥ 90%
- mortality at 0.4 ppm [4]: ≥ 90%

Compound: COC(c1cc(Br)c(NC(=O)c2cccc(N(CC3CC3)C(=O)c3ccc(C#N)cc3)c2F)c(C(F)(F)F)c1)(C(F)(F)F)C(F)(F)F [Compound 24, N-(2-bromo-4-(1,1,1,3,3,3-hexafluoro-2-methoxypropan-2-yl)-6-(trifluoromethyl)phenyl)-3-(4-cyano-N-(cyclopropylmethyl)benzamido)-2-fluorobenzamide]
- melting point: 152.3 to 153.5 °C

Compound: COC(c1cc(Br)c(NC(=O)c2cccc(N(CC3CC3)C(=O)c3ccc(Cl)cc3)c2F)c(C(F)(F)F)c1)(C(F)(F)F)C(F)(F)F [Compound 43, N-(2-bromo-4-(1,1,1,3,3,3-hexafluoro-2-methoxypropan-2-yl)-6-(trifluoromethyl)phenyl)-3-(4-chloro-N-(cyclopropylmethyl)benzamido)-2-fluorobenzamide]
- melting point: 139.3 to 140.2 °C

Compound: CC(C1CC1)N(C(=O)c1ccc(S(C)(=O)=O)cc1)c1cccc(C(=O)Nc2c(Br)cc(C(F)(C(F)(F)F)C(F)(F)F)cc2C(F)(F)F)c1F (stereo not shown) [Compound 77, N-(2-bromo-4-(perfluoropropan-2-yl)-6-(trifluoromethyl)phenyl)-3-(N-(1-cyclopropylethyl)-4-(methylsulfonyl)benzamido)-2-fluorobenzamide]
- melting point: 76 to 78.8 °C

Compound: CS(=O)(=O)c1ccc(C(=O)N(CC2CC2)c2cccc(C(=O)Nc3c(Br)cc(C(F)(C(F)(F)F)C(F)(F)F)cc3C(F)(F)F)c2F)cc1 [Compound 57, N-(2-bromo-4-(perfluoropropan-2-yl)-6-(trifluoromethyl)phenyl)-3-(N-(cyclopropylmethyl)-4-(methylsulfonyl)benzamido)-2-fluorobenzamide]
- mortality at 1 ppm [1]: 90%
- mortality at 10 ppm ([2]; 3rd day after treatment): ≥ 90%
- mortality at 1 ppm [3]: ≥ 90%
- mortality at 1 ppm [4]: ≥ 90%

Compound: O=C(Nc1c(Br)cc(C(F)(C(F)(F)F)C(F)(F)F)cc1C(F)(F)F)c1cccc(N(CC2CC2)C(=O)c2ccccc2)c1F [Compound 4, N-(2-bromo-4-(perfluoropropan-2-yl)-6-(trifluoromethyl)phenyl)-3-(N-(cyclopropylmethyl)benzamido)-2-fluorobenzamide]
- mortality at 1 ppm [1]: 90%
- mortality at 5 ppm [5, 7]: ≥ 90%
- mortality at 10 ppm ([2]; 3rd day after treatment): ≥ 90%
- mortality at 0.4 ppm [2, 9]: 20%
- mortality at 1 ppm [2, 9]: 73.3%
- mortality at 0.4 ppm [2, 10]: 26.7%
- mortality at 1 ppm [2, 10]: 73.3%
- mortality at 0.4 ppm [2, 11]: 26.7%
- mortality at 1 ppm [2, 11]: 73.3%
- mortality at 1 ppm [3]: ≥ 90%
- mortality at 10 ppm [6, 12]: 92.4%
- mortality at 50 ppm [6, 12]: 97.7%
- mortality at 10 ppm [6, 13]: 98.3%
- mortality at 50 ppm [6, 13]: 94.8%
- No. of thrips 1 d ([6]; dose 10 ppm): 20
- No. of thrips 6 d ([6]; dose 10 ppm): 2
- No. of thrips 1 d ([6]; dose 50 ppm): 6
- No. of thrips 6 d ([6]; dose 50 ppm): 6
- mortality at 0.4 ppm [4]: ≥ 90%
- mortality at 0.04 ppm [4, 9]: 30%
- mortality at 0.04 ppm [4, 10]: 80%
- mortality at 0.04 ppm [4, 11]: 100%

Compound: N#Cc1ccc(C(=O)N(c2cccc(C(=O)Nc3c(Br)cc(C(F)(C(F)(F)F)C(F)(F)F)cc3C(F)(F)F)c2F)C(C2CC2)C2CC2)cc1 [Compound 32, N-(2-bromo-4-(perfluoropropan-2-yl)-6-(trifluoromethyl)phenyl)-3-(4-cyano-N-(dicyclopropylmethyl)benzamido)-2-fluorobenzamide]
- melting point: 73.5 to 76.1 °C

Compound: O=C(Nc1c(Br)cc(C(F)(C(F)(F)F)C(F)(F)F)cc1C(F)(F)F)c1cccc(N(CC2CC2)C(=O)c2ccc(Cl)cc2)c1F [Compound 41, N-(2-bromo-4-(perfluoropropan-2-yl)-6-(trifluoromethyl)phenyl)-3-(4-chloro-N-(cyclopropylmethyl)benzamido)-2-fluorobenzamide]
- mortality at 1 ppm [1]: 90%
- mortality at 5 ppm [5, 7]: ≥ 90%
- mortality at 0.4 ppm [2, 8]: ≥ 90%
- mortality at 1 ppm [3]: ≥ 90%
- mortality at 0.4 ppm [4]: ≥ 90%

Compound: O=C(Nc1c(Br)cc(C(F)(C(F)(F)F)C(F)(F)F)cc1C(F)(F)F)c1cccc(N(CC2CC2)C(=O)c2ccc(C(F)(F)F)cc2)c1F [Compound 37, N-(2-bromo-4-(perfluoropropan-2-yl)-6-(trifluoromethyl)phenyl)-3-(N-(cyclopropylmethyl)-4-(trifluoromethyl)benzamido)-2-fluorobenzamide]
- mortality at 1 ppm [1]: 90%
- mortality at 5 ppm [5, 7]: ≥ 90%
- mortality at 0.4 ppm [2, 8]: ≥ 90%
- mortality at 1 ppm [3]: ≥ 90%
- mortality at 1 ppm [4]: ≥ 90%

Compound: N#Cc1ccc(C(=O)N(CC2CC2)c2cccc(C(=O)Nc3c(Br)cc(C(F)(C(F)(F)F)C(F)(F)F)cc3C(F)(F)F)c2F)cc1 [Compound 23, N-(2-bromo-4-(perfluoropropan-2-yl)-6-(trifluoromethyl)phenyl)-3-(4-cyano-N-(cyclopropylmethyl)benzamido)-2-fluorobenzamide]
- mortality at 1 ppm [1]: 90%
- mortality at 5 ppm [5, 7]: ≥ 90%
- mortality at 0.4 ppm ([5]; 72 h, 0.4 ppm, 3d): 53.3%
- mortality at 1 ppm ([5]; 72 h, 1 ppm, 3d): 93.3%
- mortality at 2 ppm ([5]; 72 h, 2 ppm, 3d): 100%
- mortality at 5 ppm ([5]; 72 h, 3d, read-out: Mortality (%, 3d) 5 ppm): 100%
- mortality at 0.4 ppm [2, 8]: ≥ 90%
- mortality at 0.4 ppm [2, 9]: 40%
- mortality at 1 ppm [2, 9]: 93.3%
- mortality at 0.4 ppm [2, 10]: 46.7%
- mortality at 1 ppm [2, 10]: 100%
- mortality at 0.4 ppm [2, 11]: 60%
- mortality at 1 ppm [2, 11]: 100%
- mortality at 1 ppm [3]: ≥ 90%
- mortality at 0.4 ppm [4]: ≥ 90%
